According to article PMC9409351, “Differential Ganglioside and Cholesterol Depletion by Various Cyclodextrin Derivatives and Their Effect on Synaptosomal Glutamate Release” (International Journal of Molecular Sciences, 2022):
Read-outs that look alike come from different tables or passages of the source.

Legend:
[1] = test system: GM2 and GM3 immunoreactivity; parameters: method as in PMID 27231706; details: NPC mouse model; cited from earlier work
[2] = test system: gangliosides (GM1, GD1a, GD1b, GT1b, GQ1b) of rat cerebral synaptosomes; test: Ganglioside depletion from synaptosomes, remaining content by capillary electrophoresis; format: cell-based; details: for IC50: rat cerebral synaptosomes, 40 min exposure
Method: (§1) Adult male Wistar rats purchased from Toxi-Coop Ltd. (Budapest, Hungary) were used in the experiments. Cerebral synaptosomes were prepared according to Modi and co-workers with the following modifications. Animals were decapitated and the brain was removed rapidly. Isotonic sucrose buffer (0.32 M sucrose, 4 mM HEPES-NaOH, pH 7.4) was used to homogenize the cerebrum with a Potter S Homogenizer (B. Braun, Melsungen, Germany) with 15 strokes at 1000 rpm. The homogenate was centrifuged (1500× g, 10 min, 4 °C) and the pellet was resuspended in sucrose buffer and centrifuged with the same parameters again. The two supernatants were combined and centrifuged (20,000× g, 10 min, 4 °C) to pellet the crude synaptosomes. The resulting supernatant was discarded and the pellet was washed again with an equal volume of sucrose buffer and then pelleted by centrifugation (20,000× g, 10 min, 4 °C). Synaptosomes were stored frozen using cryopreservation buffer and the slow freezing method to preserve their physiological state and integrity. Briefly, synaptosome pellets were resuspended in isotonic sucrose buffer containing 10% DMSO (v/v) and 10% FBS (v/v). To slow down the freezing process at −80 °C, synaptosomes were placed in a 3 cm thick-walled polystyrene box with a lid. Synaptosomes were stored at −80 °C until use. Immediately prior to the experiments, synaptosomes were rapidly thawed in a 37 °C water bath and pelleted by centrifugation (20,000× g, 10 min, 4 °C) to remove the cryopreservation buffer. The pellet was resuspended in isotonic HEPES-glucose buffer (10 mM HEPES-NaOH, 130 mM NaCl, 5.4 mM KCl, 1.3 mM CaCl2, 0.9 mM MgCl2, 5.5 mM glucose, pH 7.4) and aliquoted according to the experimental design.
(§2) For all types of experiments, except for the glutamate release measurements, vehicle-treated (control) and CD-treated synaptosomes were incubated in 500 μL HEPES-glucose buffer with or without CDs, respectively, for 40 min at 37 °C. […] After incubation, the synaptosomes were centrifuged (20,000× g, 5 min, 4 °C) and used immediately for further analysis. A slightly different incubation method used in the glutamate release measurements is described in the corresponding section. Across all types of experiments, osmolarities of the CD solutions were adjusted and they were between 290 and 310 mOsm. At least three parallel measurements were carried out.
The major neuronal ganglioside (GM1, GD1a, GD1b, GT1b, GQ1b) content of the rat cerebral synaptosome samples were measured by our previously published validated method. Briefly, after the CD treatments, gangliosides were extracted from 10 mg synaptosomes by liquid–liquid extraction. Ganglioside extracts were evaporated to dryness under a gentle stream of nitrogen (Zymark TurboVap LV, Hopkinton, MA, USA) in a 37 °C water bath. The dry ganglioside extract yielded from 10 mg synaptosomes was resuspended in 60 µL water, and centrifuged (20,000× g, 5 min, 4 °C) to remove the precipitate and the supernatant was analyzed by CE.
Ganglioside analysis was performed on a P/ACE MDQ capillary electrophoresis system (Beckman Coulter Inc., Brea, CA, USA) with UV detection at 200 nm. Uncoated fused silica capillaries with 75 µm internal diameter, […], respectively (Agilent Technologies, Santa Clara, CA, USA), were used. Separation was achieved by applying +25 kV voltage in a separation buffer containing 20 mM RAMEA and 100 mM sodium borate at pH 10.0. Ganglioside depletion in the CD-treated synaptosomes was calculated as the percentage of the ganglioside content of the vehicle-treated synaptosomes.
Data were analyzed by GraphPad Prism 8 (GraphPad Software, La Jolla, CA, USA). Concentration–response curves were constructed by the nonlinear regression method. One-way ANOVA followed by Bonferroni’s post hoc test was used for the data analysis in the case of the glutamate release experiments. […]

[3] = test system: cell model of GM1 gangliosidosis; parameters: method as in doi:10.1007/s10847-018-0835-8; details: immunofluorescence staining; cited from earlier work
[4] = test system: cholesterol content of rat cerebral synaptosomes; test: Cholesterol depletion from synaptosomes, Cholesterol Fluorometric Assay Kit; format: cell-based; details: for Cholesterol depletion in the tested concentration range: tested concentration range 0.3–100 mM; for IC50: rat cerebral synaptosomes, 40 min exposure, 37 °C
Method: as §1, §2
The cholesterol levels of the rat cerebral synaptosomes were measured with a Cholesterol Fluorometric Assay Kit (Cayman Chemical Company, Ann Arbor, MI, USA) with minor adjustments for the sample preparation. Briefly, after CD treatments, 2 mg of the synaptosomes were extracted with 10 vol chloroform–methanol 2:1 (v/v) to gain a lipid extract. The samples were centrifuged (20,000× g, 5 min, 4 °C) and then the supernatant was evaporated to dryness under a nitrogen stream (Zymark TurboVap LV) in a 37 °C water bath. The extracts were resuspended and diluted in the assay buffer (1.2 mL/mg synaptosome). Further preparation of the assay was according to the manufacturer’s protocol. Fluorescence was measured with a Varioskan LUX multimode microplate reader (Thermo Fisher Scientific, Waltham, MA, USA) at 530/590 nm. Cholesterol depletion in the CD-treated synaptosomes was calculated as the percentage of the cholesterol content of the vehicle-treated synaptosomes.
Data were analyzed by GraphPad Prism 8 (GraphPad Software, La Jolla, CA, USA). Concentration–response curves were constructed by the nonlinear regression method. One-way ANOVA followed by Bonferroni’s post hoc test was used for the data analysis in the case of the glutamate release experiments. All data are presented as means ± SEM of at least three parallel measurements. Differences were considered significant if p < 0.05.

[5] = total = sum of individual gangliosides, read-out: Total ganglioside depletion IC50

Compound	Accumulation of GM2 and GM3 immunoreactivity [1]	IC50 ([2]; read-out: GD1a depletion IC50) [mM]	IC50 ([2]; read-out: GD1b depletion IC50) [mM]	IC50 ([2]; read-out: GM1 depletion IC50) [mM]	IC50 ([2]; read-out: GQ1b depletion IC50) [mM]	IC50 [2, 5] [mM]	Cholesterol depletion in the tested concentration range [4]	IC50 ([2]; read-out: GT1b depletion IC50) [mM]	other results
(2-hydroxypropyl)-alpha-cyclodextrin [HPACD]	much less effective compared to HPBCD	72.9	90.6	86.7	61.2	85.1	without affecting the cholesterol content		Ganglioside extraction at highest examined concentration ([2]; 100 mM): ~ 60%; Lysosomal accumulation of GM1 [3]: reduced lysosomal accumulation of GM1
CC(O)COC[C@H]1O[C@@H]2O[C@H]3[C@H](O)[C@@H](O)[C@@H](O[C@H]4[C@H](O)[C@@H](O)[C@@H](O[C@H]5[C@H](O)[C@@H](O)[C@@H](O[C@H]6[C@H](O)[C@@H](O)[C@@H](O[C@H]7[C@H](O)[C@@H](O)[C@@H](O[C@H]8[C@H](O)[C@@H](O)[C@@H](O[C@H]1[C@H](O)[C@H]2O)O[C@@H]8COCC(C)O)O[C@@H]7COCC(C)O)O[C@@H]6COCC(C)O)O[C@@H]5COCC(C)O)O[C@@H]4COCC(C)O)O[C@@H]3COCC(C)O (stereo partly drawn) [HPBCD, (2-hydroxypropyl)-beta-cyclodextrin]	reduces the accumulation of GM2 and GM3 immunoreactivity								IC50 ([2]; 40 min, read-out: GD1a depletion IC50): 83.7 mM; IC50 ([2]; 40 min, read-out: GD1b depletion IC50): 86.6 mM; IC50 ([2]; 40 min, read-out: GM1 depletion IC50): 80.8 mM; IC50 ([2]; 40 min, read-out: GQ1b depletion IC50): 85.1 mM; IC50 ([2]; 40 min, read-out: GT1b depletion IC50): 80.1 mM; IC50 ([2]; 40 min, total = sum of individual gangliosides, read-out: Total ganglioside depletion IC50): 83.3 mM; Ganglioside loss at 50% cholesterol depleting concentration ([2]; at 50% cholesterol depleting concentration): ~ 5%; IC50 ([4]; 40 min): 33.5 mM
COC[C@H]1O[C@@H]2O[C@H]3[C@H](O)[C@@H](OC)[C@@H](O[C@H]4[C@H](O)[C@@H](OC)[C@@H](O[C@H]5[C@H](O)[C@@H](OC)[C@@H](O[C@H]6[C@H](O)[C@@H](OC)[C@@H](O[C@H]7[C@H](O)[C@@H](OC)[C@@H](O[C@H]8[C@H](O)[C@@H](OC)[C@@H](O[C@H]1[C@H](O)[C@H]2OC)O[C@@H]8COC)O[C@@H]7COC)O[C@@H]6COC)O[C@@H]5COC)O[C@@H]4COC)O[C@@H]3COC [DIMEB, heptakis(2,6-di-O-methyl)-beta-cyclodextrin]		9.7	14.5	15	11.4	10.5		8.7	Ganglioside extraction at 10 mM ([2]; 10 mM): approximately 50%; Ganglioside extraction at 30 mM ([2]; 30 mM): Nearly total extraction; Cholesterol extraction at 10 mM ([4]; 10 mM): approximately 50%; Cholesterol extraction at 30 mM ([4]; 30 mM): Nearly total extraction; IC50 [4]: 7.4 mM
randomly methylated alpha-cyclodextrin [RAMEA]		25.1	26.4	29.1	30.3	26	without affecting the cholesterol content	24.2	
